Measurements taken from US20200253211A1, “PHOTODYNAMIC INHIBITION OF MICROBIAL PATHOGENS IN PLANTS” (SUNCOR ENERGY INC, priority 2017, published 2020).

Assays:
[1] = tested on: Alternaria solani mycelia; assay: Photodynamic inhibition of Alternaria solani mycelia, percentage of dead samples after 7 days on agar; assay type: cell-based
Method: (§1) In the experiments, Alternaria solani mycelia were grown in liquid medium for 24 hours. Small spheres of the mycelia (average diameter 2 mm) were incubated for 100 minutes with 100 μM of Mg-Chlorophyllin with 0 to 5 mM of Disodium-EDTA. Samples were illuminated with 395 nm (fluence 106.6 J cm^−2) for 120 mins and the radial growth of mycelial patches after 7 days on agar medium was measured. A sample was considered dead, if there was no growth observable after 7 days on agar plates.
as §1, with “Chlorin E6” for “100 μM of Mg-Chlorophyllin”, “or without” for “0 to”, “disodium-EDTA.” for “Disodium-EDTA.”
The protocol for the PDI of A. solani was as follows (for Experiment 2 and 5): • Grow A. solani on tomato-agar for some days. • Transfer parts of the growing mycelium form the edge of the A. solani (no conidia) to liquid tomato medium. • Incubate overnight at 26° C. under constant agitation. • Transfer the grown mycelia (spheres of mycelia, approximately 2 mm in diameter) to 24 well plates. • Add 500 microlitres of the PS to the well (PBS for the Co and light only controls). • Incubate under agitation for 100 minutes. • Illuminate under agitation for 120 minutes. • Transfer the treated mycelia to tomato-agar plates and incubate for one week at room temperature. • Evaluate by counting of dead samples.

Botrytis cinerea mycelia = assay: Photodynamic inhibition of Botrytis cinerea mycelia, percentage of dead samples after 7 days on agar; assay type: cell-based
Method: as §1, with “Botrytis cinerea” for “Alternaria solani”, “48” for “24”, “with” for “with 100 μM of”, “or without” for “0 to”, “mM” for “mM of”, “minutes” for “mins”
as §1, with “Botrytis cinerea” for “Alternaria solani”, “48” for “24”, “with” for “with 100 μM of”, “or without” for “0 to”, “EDTA (calcium or disodium).” for “of Disodium-EDTA.”, “min” for “mins”
as §1, with “Botrytis cinerea” for “Alternaria solani”, “48” for “24”, “with” for “with 100 μM of”, “or without Baypure DS100” for “0 to 5 mM of Disodium-EDTA.”, “min” for “mins”
The protocol for the PDI of B. cinerea was as follows (for experiments 3 and 4 described above): • Grow B. cinerea on malt-peptone-agar for some days. • Transfer spores of B. cinerea to liquid malt-peptone medium. • Incubate for 2-3 days at 26° C. under constant agitation. • Transfer the grown mycelia (spheres of mycelia, approximately 2 mm diameter) to 24 well plates. • Add 500 μl of the PS to the well. • Incubate under agitation for 100 minutes in the dark. • Illuminate under agitation for 120 minutes. • Transfer the treated mycelia to malt-peptone-agar plates and incubate for one week at room temperature. • Evaluate by counting of dead samples.

Structure (SMILES): O=C(O)CN(CCN(CC(=O)O)CC(=O)O)CC(=O)O [EDTA, disodium EDTA]
- dead % ([1]; Table 2, EDTA 5 mM alone, in light): 0%
- dead % ([1]; Table 2, EDTA 5 mM alone, no light): 0%
- dead % ([1]; Table 2, EDTA 50 mM alone, in light): 0%
- dead % ([1]; Table 2, EDTA 50 mM alone, no light): 0%
- dead % ([1]; Table 2, EDTA 100 mM alone, in light): 0%
- dead % ([1]; Table 2, EDTA 100 mM alone, no light): 11.1%
- dead % ([1]; Table 2, EDTA 500 mM alone, in light): 0%
- dead % ([1]; Table 2, EDTA 500 mM alone, no light): 11.1%
- dead % ([1]; Table 5, light, 5 mM Na-EDTA alone): 0%
- dead % ([1]; Table 5, no light, 5 mM Na-EDTA alone): 0%
- dead % (Botrytis cinerea mycelia; Table 3, EDTA 5 mM alone, in dark): 0%
- dead % (Botrytis cinerea mycelia; Table 3, EDTA 5 mM alone, with light): 0%
- dead % (Botrytis cinerea mycelia; Table 4, EDTA-Na 5 mM alone, with light): 0%

Structure (SMILES): C=Cc1c(C)c2cc3nc(c(CC(=O)[O-])c4[n-]c(cc5nc(cc1[n-]2)C(C)=C5CC)c(C)c4C(=O)[O-])C(CCC(=O)[O-])C3C.[Mg+2].[Na+].[Na+].[Na+] (stereo not drawn) [Mg-Chlorophyllin, Mg-chlorophyllin]
- dead % ([1]; Table 2, Mg-Chlorophyllin 100 μM without EDTA, in light): 11.5%
- dead % (Botrytis cinerea mycelia; Table 3, Mg-Chlorophyllin 10 μM alone, in light): 0%
- dead % (Botrytis cinerea mycelia; Table 3, Mg-Chlorophyllin 100 μM alone, in light): 0%
- dead % (Botrytis cinerea mycelia; Table 4, Mg-Chlorophyllin 100 μM alone, in light): 0%
- Percentage of dead samples [%] (Botrytis cinerea mycelia; Table 27, MgChln 100 μM, with light): 0%
